Patent US4904462A, “Multiply-tritiated steroidal-20,17-spirolactones and their use as tracer compounds” (Schering Aktiengesellschaft, priority 1984, dated 1990)

Legend:
progesterone receptor = test: Relative binding affinity, progesterone receptor, human uterus cytosol, 3H-R5020 displacement; conditions: 3H-R5020 8 nmol/l, R5020 = 100% RBA
Protocol: (§1) The relative binding affinities (RBA values) of aldosterone, prorenone as well as the compounds of this invention were determined, for the progesterone receptor, in human uterus cytosol, for the glucocorticoid receptor, in liver cytosol, and for the mineralocorticoid receptor, in the kidney cytosol of adrenalectomized rats. The relative binding affinity with respect to CBG was measured in the serum of pregnant women, diluted 1:30.
(§2) Cytosol from human uterus, rat kidneys and rat livers was prepared by homogenizing the tissues under cooling with the addition of receptor-stabilizing buffer (10 mmol/1 of KH2 PO4, 10 mmol/1 of K2 HPO4, 1.5 mmol/1 of EDTA, 3 mmol/1 of NaN3, 5 mmol/1 of monothioglycerol, 10% glycerol, pH 7.5). The homogenate was then centrifuged for 30 minutes at 105,000×g. The thus-formed supernatant centrifugation liquor corresponds to the tissue cytosol utilized for receptor testing. Then, in each case, 50 μl of a ^3 H-steroid (^3 H-R5020) for progesterone receptor testing, ^3 H-dexamethasonefor glucocorticoid receptor testing, ^3 H-aldosterone for mineralocorticoid receptor testing), dissolved in a buffer, was pipetted into test tubes (final concentration 8 nmol/1). Thereafter, the various steroids to be tested (in respectively six different concentrations: 10^-10 to 10^-5 mol/1) in 50 μl of buffer were added to the incubating tubes. Finally, 100 μl of cytosol was introduced into each tube by pipetting, and the incubation batch was thoroughly mixed and incubated overnight at 0°-4° C. Incubation was terminated by adding 0.5 ml of dextran-layered activated carbon (DCC) in a buffer. After 10 minutes of incubation under cooling, DCC was removed by centrifuging and thus the free, not receptor-bound steroid was separated from the receptor-bound steroid. The radioactivity was measured in the supernatant centrifugation liquors by means of a scintillation counter. All thus-determined values result from triple measurements. The measured dpm values were expressed in % of relative binding affinity, the RBA value referring to 50% displacement of the ^3 H-labeled ligand by its unlabeled authentic steroid (=100% RBA).

glucocorticoid receptor = biological target: T1, glucocorticoid receptor (Rattus norvegicus, UniProt P06536); test: Relative binding affinity, glucocorticoid receptor, liver cytosol, 3H-dexamethasone displacement; conditions: for Relative binding affinity (RBA), Glucocorticoid Receptor: rat liver cytosol, 3H-dexamethasone 8 nmol/l, dexamethasone = 100% RBA
T1 construct: Cytosol from human uterus, rat kidneys and rat livers was prepared by homogenizing the tissues; from tissue; host or cells: rat liver cytosol
T1 sequence (P06536 1-795): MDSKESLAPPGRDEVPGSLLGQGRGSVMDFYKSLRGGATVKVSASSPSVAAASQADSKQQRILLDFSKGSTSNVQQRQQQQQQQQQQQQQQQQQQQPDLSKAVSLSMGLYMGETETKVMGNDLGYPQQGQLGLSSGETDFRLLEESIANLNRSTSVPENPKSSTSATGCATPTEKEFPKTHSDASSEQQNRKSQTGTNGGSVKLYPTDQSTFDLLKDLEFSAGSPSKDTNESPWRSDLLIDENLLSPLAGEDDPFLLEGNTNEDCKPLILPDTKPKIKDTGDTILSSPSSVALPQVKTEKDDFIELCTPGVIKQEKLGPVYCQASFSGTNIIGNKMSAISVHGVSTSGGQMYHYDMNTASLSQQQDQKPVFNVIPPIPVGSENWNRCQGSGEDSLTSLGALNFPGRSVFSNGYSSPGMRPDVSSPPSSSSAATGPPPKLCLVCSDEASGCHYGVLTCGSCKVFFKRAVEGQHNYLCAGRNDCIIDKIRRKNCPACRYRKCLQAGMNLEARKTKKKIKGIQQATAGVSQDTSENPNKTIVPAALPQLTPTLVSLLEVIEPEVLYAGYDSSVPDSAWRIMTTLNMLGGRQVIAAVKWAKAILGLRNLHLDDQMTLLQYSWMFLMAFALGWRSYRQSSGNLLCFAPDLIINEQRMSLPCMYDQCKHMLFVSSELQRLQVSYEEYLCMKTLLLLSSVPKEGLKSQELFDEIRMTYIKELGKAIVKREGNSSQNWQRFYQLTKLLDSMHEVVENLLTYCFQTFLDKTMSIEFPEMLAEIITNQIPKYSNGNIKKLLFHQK
Protocol: as §1, §2

CBG = biological target: T2, CBG (Homo sapiens, UniProt P08185); test: Relative binding affinity to CBG, serum of pregnant women, 3H-cortisol displacement; conditions: for Relative binding affinity (RBA), CBG: serum of pregnant women diluted 1:30, 3H-cortisol, cortisol = 100% RBA
T2 construct: a 1:30 dilution of the serum of pregnant women as the source of CBG; from tissue; host or cells: serum of pregnant women, diluted 1:30
T2 sequence (P08185 23-405): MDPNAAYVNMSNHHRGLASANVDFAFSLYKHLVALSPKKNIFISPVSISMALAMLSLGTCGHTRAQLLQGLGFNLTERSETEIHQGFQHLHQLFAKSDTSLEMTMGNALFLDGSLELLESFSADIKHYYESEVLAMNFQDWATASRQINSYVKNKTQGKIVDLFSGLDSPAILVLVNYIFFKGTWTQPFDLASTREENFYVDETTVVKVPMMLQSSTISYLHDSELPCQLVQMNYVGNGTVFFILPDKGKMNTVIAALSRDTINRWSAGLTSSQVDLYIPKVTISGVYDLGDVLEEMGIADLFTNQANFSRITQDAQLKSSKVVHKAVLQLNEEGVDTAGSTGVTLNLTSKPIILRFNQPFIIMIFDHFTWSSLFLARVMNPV
Protocol: as §1
As for the RBA values, for CBG an analogous procedure was followed, using ^3 H-cortisol and a 1:30 dilution of the serum of pregnant women as the source of CBG.

[1] = biological target: T3, mineralocorticoid receptor (Rattus norvegicus, UniProt P22199); test: Relative binding affinity, mineralocorticoid receptor, kidney cytosol, 3H-aldosterone displacement; conditions: kidney cytosol of adrenalectomized rats; 3H-aldosterone 8 nmol/l; aldosterone = 100% RBA
T3 construct: Cytosol from human uterus, rat kidneys and rat livers was prepared by homogenizing the tissues; from tissue; host or cells: kidney cytosol of adrenalectomized rats
T3 sequence (P22199 1-981): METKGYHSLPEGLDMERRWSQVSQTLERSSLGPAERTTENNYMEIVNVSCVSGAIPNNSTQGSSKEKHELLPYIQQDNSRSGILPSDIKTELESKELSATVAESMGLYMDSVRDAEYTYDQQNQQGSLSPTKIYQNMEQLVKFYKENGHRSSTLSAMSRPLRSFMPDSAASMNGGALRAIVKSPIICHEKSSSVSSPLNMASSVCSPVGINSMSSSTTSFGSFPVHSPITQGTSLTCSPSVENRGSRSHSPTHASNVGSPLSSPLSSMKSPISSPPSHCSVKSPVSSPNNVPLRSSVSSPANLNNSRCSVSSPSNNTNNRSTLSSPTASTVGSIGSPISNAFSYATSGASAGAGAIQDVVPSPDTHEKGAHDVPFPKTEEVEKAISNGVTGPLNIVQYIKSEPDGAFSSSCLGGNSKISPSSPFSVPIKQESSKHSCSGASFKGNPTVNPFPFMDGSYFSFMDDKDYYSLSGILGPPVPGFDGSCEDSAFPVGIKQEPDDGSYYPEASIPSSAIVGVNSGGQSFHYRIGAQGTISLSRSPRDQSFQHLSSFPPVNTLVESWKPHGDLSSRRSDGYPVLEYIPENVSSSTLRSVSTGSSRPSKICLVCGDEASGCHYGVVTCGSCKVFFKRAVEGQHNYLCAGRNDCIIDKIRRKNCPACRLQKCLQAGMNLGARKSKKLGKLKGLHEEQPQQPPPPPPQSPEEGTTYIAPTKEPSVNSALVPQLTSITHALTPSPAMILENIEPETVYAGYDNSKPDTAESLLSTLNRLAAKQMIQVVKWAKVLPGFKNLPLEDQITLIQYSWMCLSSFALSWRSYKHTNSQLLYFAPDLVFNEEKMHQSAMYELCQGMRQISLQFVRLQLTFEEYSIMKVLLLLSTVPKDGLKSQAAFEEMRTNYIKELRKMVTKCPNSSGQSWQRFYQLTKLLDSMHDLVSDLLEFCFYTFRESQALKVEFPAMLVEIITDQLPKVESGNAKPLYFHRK
Protocol: as §1, §2

[2] = Metabolic stability under the conditions of the receptor test; assay type: in vitro ADME; conditions: in vitro receptor test conditions

1α,2α;15β,16β-dimethylene-7α-methoxycarbonyl-3-oxo-17α-[18,19-^3 H4 ]pregn-4-ene-21,17-carbolactone [Example 7]
Relative binding affinity (RBA), Progesterone Receptor (progesterone receptor): 0.2%
Relative binding affinity (RBA), Glucocorticoid Receptor (glucocorticoid receptor): 0.2%
Relative binding affinity (RBA), CBG (CBG): < 0.1%
Relative binding affinity (RBA), Mineralocorticoid Receptor [1]: 600%

6μ,7β;15β,16β-dimethylene-3-oxo-17α-[18,19-^3 H4 ]pregna-1,4-diene-21,17-carbolactone [Example 3]
Relative binding affinity (RBA), Progesterone Receptor (progesterone receptor): 50%
Relative binding affinity (RBA), Glucocorticoid Receptor (glucocorticoid receptor): 0.9%
Relative binding affinity (RBA), CBG (CBG): < 0.1%
Relative binding affinity (RBA), Mineralocorticoid Receptor [1]: 90%

7α-(^3 H3)methoxycarbonyl-15β,16β-methylene-3-oxo-17α-[18,19-^3 H4 ]pregn-4-ene-21,17-carbolactone [Example 4]
Relative binding affinity (RBA), Progesterone Receptor (progesterone receptor): 0.5%
Relative binding affinity (RBA), Glucocorticoid Receptor (glucocorticoid receptor): 0.8%
Relative binding affinity (RBA), CBG (CBG): < 0.1%
Relative binding affinity (RBA), Mineralocorticoid Receptor [1]: 400%

7α-[1'-(^3 H3)-ethoxy]carbonyl-15β,16β-methylene-3-oxo-17α-pregn-4-ene-21,17-carbolactone [Example 8]
Relative binding affinity (RBA), Progesterone Receptor (progesterone receptor): 0.95%
Relative binding affinity (RBA), Glucocorticoid Receptor (glucocorticoid receptor): 0.8%
Relative binding affinity (RBA), CBG (CBG): < 0.1%
Relative binding affinity (RBA), Mineralocorticoid Receptor [1]: 800%

7α-[1'-(^3 H3)ethoxy]carbonyl-15β,16β-methylene-3-oxo-17α-pregna-1,4-diene-21,17-carbolactone [Example 6]
Relative binding affinity (RBA), Progesterone Receptor (progesterone receptor): 0.2%
Relative binding affinity (RBA), Glucocorticoid Receptor (glucocorticoid receptor): 0.4%
Relative binding affinity (RBA), CBG (CBG): < 0.1%
Relative binding affinity (RBA), Mineralocorticoid Receptor [1]: 600%

C[C@]12CCC(=O)C=C1CC[C@@H]1[C@@H]2[C@@H](O)C[C@]2(C=O)[C@@H](C(=O)CO)CC[C@@H]12 [Aldosterone, reference compound]
Relative binding affinity (RBA), Progesterone Receptor (progesterone receptor): 0.2%
Relative binding affinity (RBA), Glucocorticoid Receptor (glucocorticoid receptor): 30%
relative binding affinity in rat liver cytosol (glucocorticoid receptor; with respect to dexamethasone): 30%
Relative binding affinity (RBA), CBG (CBG): 6%
relative binding affinity (RBA value) to the human serum protein CBG (CBG; with respect to cortisol): 6%
metabolic stability under the conditions of the receptor test [2]: is metabolized under in vitro conditions of receptor testing

C[C@]12CCC(=O)C=C1[C@@H]1C[C@@H]1[C@H]1[C@@H]3[C@@H]4C[C@@H]4[C@@]4(CCC(=O)O4)[C@@]3(C)CC[C@@H]12 [Prorenone, reference compound]
Relative binding affinity (RBA), Progesterone Receptor (progesterone receptor): 32%
Relative binding affinity (RBA), Glucocorticoid Receptor (glucocorticoid receptor): 3%
Relative binding affinity (RBA), CBG (CBG): < 0.01%
Relative binding affinity (RBA), Mineralocorticoid Receptor [1]: 200%
